Experimental data taken from patent US8841456B2, “1,5-naphthyridine derivative or salt thereof” (FUJIFILM Corporation, priority 2011, dated 2014).
Where two headings read alike, the source gives them in different places.

Columns and labels:
human PI3Kα protein = target: T1, human PI3Kα protein (Homo sapiens, UniProt P42336); assay: PI3Kα enzyme assay (ADP-Glo kinase assay); type: biochemical; conditions: 3 nM PI3Kα, 50 μM PIP2, 100 μM ATP
T1 construct: purchased Carna Biosciences, Inc; host or cells: Baculovirus expression system
T1 sequence (P42336 whole entry): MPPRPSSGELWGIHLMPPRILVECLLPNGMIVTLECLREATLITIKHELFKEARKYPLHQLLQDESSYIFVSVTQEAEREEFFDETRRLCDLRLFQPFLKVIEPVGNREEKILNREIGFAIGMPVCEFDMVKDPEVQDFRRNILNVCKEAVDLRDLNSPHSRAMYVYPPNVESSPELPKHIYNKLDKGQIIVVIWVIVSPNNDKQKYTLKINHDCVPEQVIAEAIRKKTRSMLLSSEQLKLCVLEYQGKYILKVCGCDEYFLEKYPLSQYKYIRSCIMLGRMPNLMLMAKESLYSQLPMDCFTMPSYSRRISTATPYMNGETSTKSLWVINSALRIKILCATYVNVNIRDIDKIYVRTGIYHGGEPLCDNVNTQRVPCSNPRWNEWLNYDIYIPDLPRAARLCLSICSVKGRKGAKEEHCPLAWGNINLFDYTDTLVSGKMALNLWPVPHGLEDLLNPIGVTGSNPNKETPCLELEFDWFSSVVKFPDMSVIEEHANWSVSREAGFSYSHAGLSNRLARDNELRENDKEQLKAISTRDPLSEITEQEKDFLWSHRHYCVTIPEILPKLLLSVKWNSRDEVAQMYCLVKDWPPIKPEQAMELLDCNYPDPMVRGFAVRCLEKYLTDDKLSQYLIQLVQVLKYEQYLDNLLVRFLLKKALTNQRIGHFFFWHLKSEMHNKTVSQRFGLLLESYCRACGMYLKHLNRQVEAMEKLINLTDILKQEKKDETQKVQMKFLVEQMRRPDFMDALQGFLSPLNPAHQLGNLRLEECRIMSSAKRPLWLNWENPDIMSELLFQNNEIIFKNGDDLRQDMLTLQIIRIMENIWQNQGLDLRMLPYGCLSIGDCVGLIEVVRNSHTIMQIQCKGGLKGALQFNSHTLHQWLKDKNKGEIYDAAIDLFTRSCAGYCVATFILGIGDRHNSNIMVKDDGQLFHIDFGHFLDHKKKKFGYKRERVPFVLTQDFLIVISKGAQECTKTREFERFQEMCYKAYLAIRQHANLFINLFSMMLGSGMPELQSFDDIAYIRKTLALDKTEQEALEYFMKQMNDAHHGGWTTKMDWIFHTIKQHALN
T1 sequence (P27986 whole entry partner): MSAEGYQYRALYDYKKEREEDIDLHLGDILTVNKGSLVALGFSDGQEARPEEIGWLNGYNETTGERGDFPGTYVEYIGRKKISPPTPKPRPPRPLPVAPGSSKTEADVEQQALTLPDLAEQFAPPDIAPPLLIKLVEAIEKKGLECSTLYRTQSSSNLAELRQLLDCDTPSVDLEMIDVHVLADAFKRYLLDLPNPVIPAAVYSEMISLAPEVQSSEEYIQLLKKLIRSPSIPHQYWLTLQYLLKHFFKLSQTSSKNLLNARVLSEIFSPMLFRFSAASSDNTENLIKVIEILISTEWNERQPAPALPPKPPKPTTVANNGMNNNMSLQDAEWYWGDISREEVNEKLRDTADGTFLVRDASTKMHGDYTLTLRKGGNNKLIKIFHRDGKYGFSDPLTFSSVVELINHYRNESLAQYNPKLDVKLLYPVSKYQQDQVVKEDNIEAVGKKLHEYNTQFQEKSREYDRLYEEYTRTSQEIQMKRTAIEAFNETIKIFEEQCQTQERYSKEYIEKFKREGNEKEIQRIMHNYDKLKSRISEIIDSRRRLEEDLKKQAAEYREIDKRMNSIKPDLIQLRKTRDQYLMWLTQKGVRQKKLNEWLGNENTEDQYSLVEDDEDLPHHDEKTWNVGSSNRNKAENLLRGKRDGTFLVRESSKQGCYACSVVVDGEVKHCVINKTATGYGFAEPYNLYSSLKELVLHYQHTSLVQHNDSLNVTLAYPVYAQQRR
Protocol: Evaluation of the PI3Kα inhibitory activity of the compound of the present invention was carried out according to the method as described below.
For the PI3Kα enzyme assay, biotinylated product of a human PI3Kα protein produced using a Baculovirus expression system (Carna Biosciences, Inc.) was used. Further, for the detection of the enzyme activity, an ADP-Glo kinase assay (PROMEGA Corporation) was used.
10 μL of a reaction solution (3 nM PI3Kα, 40 mM Tris-HCl, 20 mM MgCl2, 0.1% BSA, pH 7.5) including the human PI3Kα protein and a test compound at a predetermined concentration was incubated at room temperature for 15 minutes. Thereafter, 5 μL of a mixed solution of L-α-Phosphatidylinositol 4,5-diphosphate (PIP2) (SIGMA-ALDLICH) which was a substrate and ATP(SIGMA-ALDLICH) was added thereto to a final concentration of 50 μM and 100 μM, respectively, and the reaction solution was further incubated at 25° C. for 60 minutes to carry out an enzyme reaction.
After the reaction, 15 μL of an ADP-Glo reagent (PROMEGA Corporation) was added and the resulting liquid was incubated at room temperature for 60 minutes, whereby the enzyme reaction was stopped. Thereafter, after further adding 30 μL of a Kinase Detection Reagent (PROMEGA Corporation) and standing the resulting solution at room temperature for 40 minutes, ADP produced by the enzyme reaction was quantified by luminescence intensity.
For the measurement of luminescence intensity, EnVision (PerkinElmer, Inc.) was used.
(§1) The inhibitory activity of the compounds was evaluated using an IC50 (50% inhibitory concentration). The IC50 was calculated using XLfit (IDBS).

[1] = target: T2, glutathione S-transferase (GST)-fusion human ERK2 protein (Homo sapiens, UniProt P28482); assay: ERK2 enzyme assay (LabChip mobility shift); type: biochemical; conditions: 2 nM ERK2, 4.25 μM FL-Peptide 8, 43 μM ATP
T2 construct: purchased Carna Biosciences, Inc; host or cells: E. coli expression system
T2 sequence (P28482 whole entry, the tested form may be a part): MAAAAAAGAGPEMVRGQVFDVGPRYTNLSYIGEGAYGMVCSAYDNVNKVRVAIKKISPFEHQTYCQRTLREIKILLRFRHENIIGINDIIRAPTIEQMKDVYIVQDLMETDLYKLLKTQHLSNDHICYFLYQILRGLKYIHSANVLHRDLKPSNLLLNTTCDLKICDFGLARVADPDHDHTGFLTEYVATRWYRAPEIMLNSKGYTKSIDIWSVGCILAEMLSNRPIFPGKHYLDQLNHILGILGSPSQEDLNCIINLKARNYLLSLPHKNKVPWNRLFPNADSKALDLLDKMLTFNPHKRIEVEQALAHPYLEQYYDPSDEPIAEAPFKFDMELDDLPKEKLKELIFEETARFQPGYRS
Protocol: Evaluation of the ERK2 inhibitory activity of the compound of the present invention was carried out according to the method as described below.
For the ERK2 enzyme assay, a glutathione S-transferase (GST)-fusion human ERK2 protein (Carna Biosciences, Inc.) produced using an E. coli expression system was used.
12 μL of the reaction solution (2 nM ERK2, 100 mM Hepes, 10 mM MgCl2, 1.5 mM DTT, 0.003% Brij35, pH 7.5) including the ERK2 protein and a test compound at a predetermined concentration was incubatedat room temperature for 15 minutes. Thereafter, 3 μL of a mixed solution of FL-Peptide 8 (5-FAM-IPTSPITTTYFFFKKK-COOH) (Caliper Lifescience) which was a substrate and ATP(SIGMA-ALDLICH) were added thereto to a final concentration of 4.25 μM and 43 μM, respectively. The reaction solution was further incubated at 25° C. for 120 minutes to carry out an enzyme reaction.
The enzyme reaction was stopped by adding 27 μL of a reaction-stopping solution (100 mM HEPES, 11.2 mM EDTA, 5.6% Brij35, pH 7.5) including a 0.5% Coating reagent 8 (PerkinElmer, Inc.) after the reaction. Thereafter, non-phosphorylated peptides and phosphorylated peptides were separated using LabChip Ez Reader (Caliper LifeScience, Inc.) to quantify the proportion of phosphorylated peptides.
as §1

[2] = IC50 class, read-out: PI3Kα Inhibitory Activity
[3] = IC50 class, read-out: ERK2 Inhibitory Activity

Row | Structure (SMILES) | IC50 (human PI3Kα protein; [2]) | IC50 [1, 3] | IC50 (human PI3Kα protein; read-out: PI3Kα, IC50) | IC50 ([1]; read-out: ERK2, IC50)
1 | CCCN1CCC(n2cc(-c3cnc4ccc(NC(=O)NC5CCCC5)nc4c3)cn2)CC1 [Compound 0229] | < 100 nM | 100 to 1000 nM |  | 
2 | O=C(NCCO)Nc1ccc2ncc(-c3cn[nH]c3)cc2n1 [Compound 0097] | 1000 to 10000 nM | 100 to 1000 nM |  | 
3 | O=C(Nc1ccc2ncc(-c3cnn(CCN4CCCCC4)c3)cc2n1)NC1CCCC1 [Compound 0036] | < 100 nM | < 100 nM |  | 
4 | C[C@H](CN(C)C)Cn1cc(-c2cnc3ccc(NC(=O)NC4CCCC4)nc3c2)cn1 [Compound 0244] | < 100 nM | < 100 nM |  | 
5 | O=C(NC[C@H]1CCCO1)Nc1ccc2ncc(-c3cn[nH]c3)cc2n1 [Compound 0192] | 100 to 1000 nM | < 100 nM |  | 
6 | O=C(Nc1ccc2ncc(-c3cnn(CCN4CC5(COC5)C4)c3)cc2n1)NC1CCCC1 [Compound 0117] | < 100 nM | 100 to 1000 nM |  | 
7 | CC(=O)OCCCCn1cc(-c2cnc3ccc(NC(=O)NC4CCCC4)nc3c2)cn1 [Compound 0249] | < 100 nM | < 100 nM |  | 
8 | O=C(Nc1ccc2ncc(-c3ccc4c(c3)OCO4)cc2n1)NC1CCCC1 [Compound 0120] | 100 to 1000 nM | 100 to 1000 nM |  | 
9 | O=C1CN(c2cnc3ccc(NC(=O)NC4CCCC4)nc3c2)CCN1 [Compound 0142] | < 100 nM | 100 to 1000 nM |  | 
10 | O=C(Nc1ccc2ncc(-c3cnco3)cc2n1)NC1CCCC1 [Compound 0239] | < 100 nM | < 100 nM |  | 
11 | C[C@@H](NC(=O)Nc1ccc2ncc(-c3cn[nH]c3)cc2n1)C1CCCCC1 [Compound 0080] | < 100 nM | < 100 nM | 60 nM | < 3 nM
12 | COc1cc(-c2cnc3ccc(NC(=O)NC4CCCC4)nc3c2)cnc1O [Compound 0015] | < 100 nM | < 100 nM |  | 
13 | O=C(Nc1ccc2ncc(-c3nn[nH]n3)cc2n1)NC1CCCC1 [Compound 0131] | < 100 nM | 100 to 1000 nM |  | 
14 | O=C(Nc1ccc2ncc(N3CC(OCCN4CCOCC4)C3)cc2n1)NC1CCCC1 [Compound 0241] | < 100 nM | 100 to 1000 nM |  | 
15 | O=C(Nc1ccc2ncc(Nc3cc[nH]n3)cc2n1)NC1CCCC1 [Compound 0126] | < 100 nM | 100 to 1000 nM |  | 
16 | O=C(Nc1ccc2ncc(-c3cnn(CCCN4CCOCC4)c3)cc2n1)N[C@H]1CCN(Cc2ccccc2)C1 [Compound 0176] | 100 to 1000 nM | 100 to 1000 nM |  | 
17 | COc1ccc(-c2cnc3ccc(NC(=O)NC4CCCC4)nc3c2)cc1OC [Compound 0002] | < 100 nM | < 100 nM | 84 nM | 42 nM
18 | CN(C)CCOc1cc(-c2cnc3ccc(NC(=O)NC4CCCC4)nc3c2)ccc1O [Compound 0016] | < 100 nM | < 100 nM |  | 
19 | O=C(Nc1ccc2ncc(-c3cnn(CCCN4CCOCC4)c3)cc2n1)NC1CCCC1 [Compound 0044] | < 100 nM | < 100 nM | 4 nM | 49 nM
20 | O=C(Nc1ccc2ncc(-c3cnn(CCCN4CC[C@@H](F)C4)c3)cc2n1)NC1CCCC1 [Compound 0248] | < 100 nM | < 100 nM |  | 
21 | COc1cc(Nc2cnc3ccc(NC(=O)NC4CCCC4)nc3c2)cc(OC)c1OC [Compound 0009] | < 100 nM |  | < 3 nM | 1220 nM
22 | CC(C)(C)NC(=O)Nc1ccc2ncc(-c3cnn(CCCN4CCNCC4)c3)cc2n1 [Compound 0164] | < 100 nM | < 100 nM |  | 

Row | Structure (SMILES) | IC50 (human PI3Kα protein; [2]) | IC50 [1, 3] | IC50 (human PI3Kα protein; read-out: PI3Kα, IC50) | IC50 ([1]; read-out: ERK2, IC50)
23 | COc1cc(-c2cnc3ccc(NC(=O)NC4CCCC4)nc3c2)cnc1OC [Compound 0014] | 100 to 1000 nM | 100 to 1000 nM |  | 
24 | CC(C)C(C)NC(=O)Nc1ccc2ncc(-c3cn[nH]c3)cc2n1 (stereo not drawn) [Compound 0072] | < 100 nM | < 100 nM |  | 
25 | O=C(NCc1ccccn1)Nc1ccc2ncc(-c3cn[nH]c3)cc2n1 [Compound 0101] | 1000 to 10000 nM | < 100 nM |  | 
26 | O=C(Nc1ccc2ncc(-c3cnn(CCCCN4C(=O)c5ccccc5C4=O)c3)cc2n1)NC1CCCC1 [Compound 0206] | < 100 nM | 100 to 1000 nM |  | 
27 | CC(C)(C)OC(=O)N1CC[C@H](NC(=O)Nc2ccc3ncc(-c4cn[nH]c4)cc3n2)C1 [Compound 0071] | < 100 nM | 100 to 1000 nM |  | 
28 | C[C@H](NC(=O)Nc1ccc2ncc(-c3cn[nH]c3)cc2n1)C1CCCC1 [Compound 0199] | 100 to 1000 nM | < 100 nM |  | 
29 | O=C(Nc1ccc2ncc(CN3CCOCC3)cc2n1)NC1CCCC1 [Compound 0132] | 1000 to 10000 nM | 1000 to 10000 nM |  | 
30 | O=C(NCCOCc1ccccc1)Nc1ccc2ncc(-c3cn[nH]c3)cc2n1 [Compound 0107] | 100 to 1000 nM | < 100 nM |  | 
31 | CCCC(C)(C)NC(=O)Nc1ccc2ncc(-c3cn[nH]c3)cc2n1 [Compound 0184] | < 100 nM | < 100 nM |  | 
32 | O=C(Nc1ccc2ncc(-c3c[nH]nc3CO)cc2n1)NC1CCCC1 [Compound 0219] | < 100 nM | < 100 nM |  | 
33 | CCCCCNC(=O)Nc1ccc2ncc(-c3cn[nH]c3)cc2n1 [Compound 0094] | < 100 nM | < 100 nM |  | 
34 | CCN1CCN(CCCn2cc(-c3cnc4ccc(NC(=O)NC5CCCC5)nc4c3)cn2)CC1 [Compound 0233] | < 100 nM | < 100 nM |  | 
35 | O=C(Nc1ccc2ncc(-c3cnn(CCN4CCOCC4)c3)cc2n1)NS(=O)(=O)c1ccccc1 [Compound 0208] | > 10000 nM | > 10000 nM |  | 
36 | CN1CCN(CCn2cc(-c3cnc4ccc(NC(=O)NC5CCCC5)nc4c3)cn2)CC1 [Compound 0223] | < 100 nM | < 100 nM |  | 
37 | CCN(CC)CCn1cc(-c2cnc3ccc(NC(=O)NC4CCCC4)nc3c2)cn1 [Compound 0025] | < 100 nM | 100 to 1000 nM |  | 
38 | CN(CCCNC(=O)Nc1ccc2ncc(-c3cn[nH]c3)cc2n1)c1ccccc1 [Compound 0105] | 100 to 1000 nM | < 100 nM |  | 
39 | O=C(NCCCN1CCOCC1)Nc1ccc2ncc(-c3cn[nH]c3)cc2n1 [Compound 0201] | 1000 to 10000 nM | 100 to 1000 nM |  | 
40 | O=C(Nc1ccc2ncc(-c3cn[nH]c3)cc2n1)NC1CCCc2ccccc21 (stereo not drawn) [Compound 0065] | 100 to 1000 nM | < 100 nM |  | 
41 | COc1ccc(CCCCNC(=O)Nc2ccc3ncc(-c4cn[nH]c4)cc3n2)cc1 [Compound 0173] | 100 to 1000 nM | < 100 nM |  | 
42 | CS(=O)(=O)C1CCN(CCn2cc(-c3cnc4ccc(NC(=O)NC5CCCC5)nc4c3)cn2)CC1 [Compound 0218] | < 100 nM | < 100 nM |  | 
43 | O=C(NCC1CCCOC1)Nc1ccc2ncc(-c3cn[nH]c3)cc2n1 (stereo not drawn) [Compound 0190] | 100 to 1000 nM | < 100 nM |  | 
